In PubChem BioAssay (NCI):
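Where inhibition never reached the appropriate level, the endpoint shown equals the highest concentration tested. Otherwise, values were interpolated linearly from a five-concentration, 48-hour dose response in 96-well plates. Definition used: TGI = concentration required for complete inhibition of growth.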

Key:
Experiment in all cases: DTP human tumour cell line panel, 48 h
[1] = system: T-47D breast
[2] = system: KM12 colon
[3] = system: ACHN renal
[4] = system: MDA-MB-231 breast
[5] = system: SF-295 CNS
[6] = system: M14 melanoma
[7] = system: A549 NSCLC
[8] = system: NCI-H226 lung
[9] = system: PC-3 prostate
[10] = system: MDA-N
[11] = system: HOP-92 NSCLC

| SMILES | TGI [1] [µM] | TGI [2] [µM] | TGI [3] [µM] | TGI [4] [µM] | TGI [5] [µM] | TGI [6] [µM] | TGI [7] [µM] | TGI [8] [µM] | TGI [9] [µM] | TGI [10] [µM] | TGI [11] [µM] |
| --- | --- | --- | --- | --- | --- | --- | --- | --- | --- | --- | --- |
| O=C(CCCn1ccnc1[N+](=O)[O-])NCCn1ccnc1 | > 100 | > 100 | > 100 | > 100 | > 100 | > 100 | > 100 | > 100 | > 100 |  |  |
| CNC(=O)CCNC(=O)CCC(=O)OC | > 100 | > 100 | > 100 | > 100 | > 100 | > 100 | > 100 |  | > 100 | > 100 |  |
| COc1ccc(CN(CCc2c[nH]c3ccccc23)Cc2ccc(OC)cc2)cc1 |  | 13.9 | 17.8 |  | 5.78 |  | > 31.7 | 2.95 | 13 |  | 9.85 |
| c1ccc2sc(C3(N4CCCCC4)CCCC3)cc2c1 |  | 23.4 | 21 |  | 23.7 | 33.1 | 22.3 | 13.5 |  | 35.1 | 25.4 |
| O=[N+]([O-])C(=C(N1CCOCC1)N1CCOCC1)/C(Cl)=C(\Cl)[N+](=O)[O-] | 4.39 | 30.9 | 14.6 | 10.1 | 36.4 | 22.1 | 50.8 | > 100 | 32.6 | 25.1 |  |
| COC[n+]1cc2cc(OC)c(OC)cc2c2ccc3cc(OC)c(OC)cc3c21 |  | > 100 | > 100 |  | > 100 | > 100 | > 100 | > 100 |  |  | > 100 |
| CC(C)CCC[C@@H](C)C1CCC2[C@@H]3CCC4CC(CCC=C(c5cc(Cl)c(OC(=O)c6ccccc6)c(C(=O)O)c5)c5cc(Cl)c(OC(=O)c6ccccc6)c(C(=O)O)c5)CC[C@]4(C)C3CC[C@@]21C (stereo partly drawn) |  | > 100 | > 100 | 26.5 |  | 29.3 | > 100 | > 100 | > 100 | > 100 | 73.3 |
| CCCCCc1c2nc(c(CCCCC)c3ccc([nH]3)c(CCCCC)c3ccc([nH]3)c(CCCCC)c3nc1C=C3)C=C2 | > 100 | > 100 | > 100 | > 100 | > 100 | > 100 | > 100 |  | > 100 | > 100 | > 100 |
| C=C(C)[C@@H]1CC[C@]2(C(=O)O)CC[C@]3(C)[C@H](CC[C@@H]4[C@@]5(C)CC[C@H](C(=O)/C=C/c6ccc(O)cc6)C(C)(C)[C@@H]5CC[C@]43C)[C@@H]12 | 20.7 | 18.4 |  | 23 | 21.7 | 21.9 | > 100 |  | 19 | 18 | 29.2 |
| CC(=O)Nc1ccc2c(C)c3c4ccccc4n(C)c3nc2n1 | > 100 | 40.2 | 33.1 | 41.2 | 53.4 | 52.3 | 59.8 | > 100 | > 100 | 34.5 |  |
| CSc1cc(Cl)c(C)cc1S(=O)(=O)NC(=O)NNc1ccc(F)c(Cl)c1 | > 100 | > 100 | > 100 | > 100 | > 100 | > 100 | > 100 | > 100 | > 100 | > 100 |  |
